# Patent US5321035A, “Piperidine derivatives and process for preparation thereof” (Shionogi & Co., Ltd., priority 1992, dated 1994)
# Tests used:
# [1] = system: [3H]5-HT uptake by synaptosomes; experiment: {3H} Serotonin (5-HT) Uptake Inhibition Test in brain synaptosomes; assay type: biochemical, rat (male Slc: Wistar strain); settings: for IC50: 5 nM [3H]5-HT, 5 min at 37° C, rat brain synaptosomes
# Text: (1) Evaluation of Effects on Neurotransmittal Systems {^3 H} Serotonin (5-HT) Uptake Inhibition Test
# Compound (a): a compound of the present invention
# Compound (b): 1-[3-{4-(3,4-dichlorophenyl)-piperidin-1-yl}propylcarbamoyl]-2-oxopyrrolidin (Japanese Patent Publication (KOKAI) No.131155/1989).
# Male Slc: Wistar strain rats (12-week-old, Japan SLC).
# Rats were killed by decapitation and a whole brain except for cerebellum is isolated immediately. The isolated tissue was homogenized in 20 volume of ice-cold 0.32 M sucrose solution by Potter-type homogenizer and centrifuged at 1,000× g for 10 min. The supernatant is centrifuged at 40,000× g for 20 min. The resultant pellet is resuspended in 20 volume of Krebs-Henseleit buffer containing 1 mM ascorbate, 0.17 mM EDTA and 0.08 mM pargyline by Polytron and centrifuged at 40,000× g for 10 min, which procedure was repeated two more times. The finally obtained pellet was resuspended in 20 volume of ice-cold Krebs-Henseleit buffer using Polytron. The resultant suspension was diluted to 1/10 with the same buffer to give a synaptosome sample.
# A mixture of 5 nM [^3 H]5-HT (10 μl), synaptosome sample (480 μl ) and a solution (10 μl ) containing a test compound at a predetermined concentration was incubated for 5 min at 37° C. The reaction was stopped by diluting the mixture with ice-cold Krebs-Henseleit buffer (2.5 ml) and filtering with suction on Whatman GF/C paper. The filter paper was washed three times with ice-cold Krebs-Henseleit buffer (2.5 ml each) and allowed to stand for about 18 hr in Cleasol-1 solution (5 ml). The radioactivity was then measured by means of a liquid scintillation counter. A control experiment was carried out in the same manner as the above using 5 nM [^3 H]5-HT (10 μl ), synaptosome sample (480 μl ) and a solvent (10 μl ) used for dissolving a test compound to obtain blank values of radioactivity. […]
# [2] = system: hippocampus CAI pyramidal cells; experiment: Inhibitory effect against delayed necrosis of hippocampus pyramidal cells after cerebral ischemia (bilateral common carotid artery ligation); assay type: in vivo, Mongolian gerbil; settings: for injury (%) in pyramidal cell layer: 30 min before 5 min occlusion, 4th day; for inhibition (%) of injury: vs control
# Description: Inhibitory effect against the delayed necrosis of hippocampus CAI pyramidal cells was determined.
# Compound (a) and compound (b) were again used in this experiment. Three to eight male mice (Mongolian gerbil, 11 to 12-week-old, Seiwa Jikken-dobutsuKenkyusyo) were used for one group.
# Each animal was intraperitoneally administered a solution of the test compound (a) or (b) dissolved in distilled water, or only distilled water (for control) at 0.2 ml/100 g weight of the animal. Thirty minutes later, under the halothane anesthesia, bilateral common carotid artery was separated from surrounding tissues and ligated for a period of 5 min with Sugita's artery Klemme. Anesthesia was stopped at the time of artery occlusion. On the 4th day after the operation, each animal was anesthetized with pentobarbital Na (45 mg/kg), and brain was perfused with 4% paraformaldehyde solution and removed. From the brain was prepared a piece of cerebral preparation containing hippocampus. It was placed in Carnoy's fixative overnight for fixation and embedded in paraffin, from which sliced coronal preparations of 10 μm thick were prepared. Each cerebral preparation was stained with hematoxylin-eosin and the rate of injury (%) in pyramidal cell layer extending from paramedian to CA4 was observed using two-dimensional image analyzer (Cosmozon IS, Nicon).
# [3] = system: 7-alkoxycumarin-O-dialkylase; experiment: Enzyme Induction Test (liver microsomal 7-alkoxycumarin-O-dialkylase activities after repeated dosing); assay type: in vivo, mouse (male, DS)
# Description: Male mice (DS, 5-6 week-old) received intraperitoneally 100 mg/kg of the compound (a) of the present invention or the compound (c) (1-[3-}4-(3,4,-dichlorophenyl)-1,2,5,6-tetrahydropiperidin-1-yl}propylcarbamoyl]-2-oxopyrrolidine) suspended in 5% gum arabic once a day for three days. After 24 hrs from the final administration, the liver was removed from the animal, and liver microsome was prepared by means of centrifugal fractionation. Additional liver microsomes were prepared in the same manner as above by intraperitoneally administering a typical enzyme inducer, phenobarbital (dissolved in saline) or β-naphthoflavone (suspended in sesame oil), to mice. Enzymatic activities of the above liver microsomes on drug metabolism were evaluated by determining their 7-alkoxycumarin-O-dialkylase activities.
# [4] = mouse, in vivo, ip, 100 mg/kg, 1440 min
# [5] = i.p., compounds (a), (c): 100 mg/kg once a day for three days, control = 1.00
# [6] = i.p., compounds (a), (c): 100 mg/kg once a day for three days, liver microsomes
# [7] = three days, compared with the control
compound,measurement,setting,value
"1-[3-{4-(3,4-dichlorophenyl)-piperidin-1-yl}propylcarbamoyl]-2-oxopyrrolidin [Compound (b)]",IC50,[1],23 µM
same,injury (%) in pyramidal cell layer,[2]; 12.5 mg/kg i.p.,44.0 ± 3.2%
same,inhibition (%) of injury,[2]; 12.5 mg/kg i.p.,+2.8%
same,injury (%) in pyramidal cell layer,[2]; 25.0 mg/kg i.p.,28.1 ± 8.3%
same,inhibition (%) of injury,[2]; 25.0 mg/kg i.p.,+38.0%
same,injury (%) in pyramidal cell layer,[2]; 50.0 mg/kg i.p.,30.7 ± 3.9%
same,inhibition (%) of injury,[2]; 50.0 mg/kg i.p.,+32.1%
"O=C1CCCN1C(=O)NCCCN1CCC(c2ccc(Cl)c(Cl)c2)CC1 [Compound (a), 1-[3-{4-(3,4-Dichlorophenyl)piperidin-1-yl}-propylcarbamoyl]-2-oxopyrrolidine]",enzyme induction (in words),"[3]; mouse, in vivo",no enzyme induction was observed
same,deethylation activity (7-alkoxycumarin-O-dialkylase),"[3]; mouse, in vivo, ip, 100 mg/kg",2.59 ± 0.27 nmol/min/mg of microsome protein
same,demethylation activity (7-alkoxycumarin-O-dialkylase),"[3]; mouse, in vivo, ip, 100 mg/kg",2.79 ± 0.33 nmol/min/mg of microsome protein
same,depropylation activity (7-alkoxycumarin-O-dialkylase),"[3]; mouse, in vivo, ip, 100 mg/kg",1.08 ± 0.12 nmol/min/mg of microsome protein
same,"deethylation activity, ratio to control (in parentheses)",[3]; [4],0.98
same,"demethylation activity, ratio to control (in parentheses)",[3]; [4],1.08
same,"depropylation activity, ratio to control (in parentheses)",[3]; [4],0.89
same,IC50,[1],0.13 µM
same,serotonin uptake inhibitory activity (in words),[1]; compared to compound (b),much more potent serotonin uptake inhibitory activity
same,injury (%) in pyramidal cell layer,[2]; 12.5 mg/kg i.p.,45.9 ± 2.1%
same,inhibition (%) of injury,[2]; 12.5 mg/kg i.p.,+8.0%
same,injury (%) in pyramidal cell layer,[2]; 25.0 mg/kg i.p.,33.6 ± 5.3%
same,inhibition (%) of injury,[2]; 25.0 mg/kg i.p.,+32.7%
same,inhibition of delayed necrosis of hippocampus CAI pyramidal cells (in words),[2]; 50 mg/kg i.p.,completely inhibited
same,injury (%) in pyramidal cell layer,[2]; 50.0 mg/kg i.p.,0%
same,inhibition (%) of injury,[2]; 50.0 mg/kg i.p.,+100%
same,inhibition of delayed necrosis of hippocampus CAI pyramidal cells (in words),[2]; 12.5 and 25 mg/kg i.p.,significantly inhibited
O=C1CCCN1C(=O)NCCCN1CC=C(c2ccc(Cl)c(Cl)c2)CC1 [Compound (c)],"deethylation activity, ratio to control (in parentheses)",[3]; [5],1.99
same,"demethylation activity, ratio to control (in parentheses)",[3]; [5],1.61
same,"depropylation activity, ratio to control (in parentheses)",[3]; [5],2.20
same,deethylation activity (7-alkoxycumarin-O-dialkylase),[3]; [6],2.29 ± 0.18 nmol/min/mg of microsome protein
same,demethylation activity (7-alkoxycumarin-O-dialkylase),[3]; [6],1.83 ± 0.19 nmol/min/mg of microsome protein
same,depropylation activity (7-alkoxycumarin-O-dialkylase),[3]; [6],0.99 ± 0.55 nmol/min/mg of microsome protein
same,enzyme induction (in words),"[3]; mouse liver, three days",carcinogenic enzyme induction of β-naphthoflavone type (3-methylcholanthrene type)
same,increase in deethylation and depropylation activities,[3]; [7],1.99-2.20 times
same,increase in demethylation activity,[3]; [7],1.61 times
"CCC1(c2ccccc2)C(=O)NC(=O)NC1=O [phenobalbital, phenobarbital]","deethylation activity, ratio to control (in parentheses)",[3]; [5],2.53
same,"demethylation activity, ratio to control (in parentheses)",[3]; [5],2.29
same,"depropylation activity, ratio to control (in parentheses)",[3]; [5],2.20
same,deethylation activity (7-alkoxycumarin-O-dialkylase),[3]; [6],2.63 ± 0.18 nmol/min/mg of microsome protein
same,demethylation activity (7-alkoxycumarin-O-dialkylase),[3]; [6],2.18 ± 0.13 nmol/min/mg of microsome protein
same,depropylation activity (7-alkoxycumarin-O-dialkylase),[3]; [6],1.06 ± 0.06 nmol/min/mg of microsome protein
"O=c1cc(-c2ccccc2)oc2ccc3ccccc3c12 [β-naphtoflavone, β-naphthoflavone]",deethylation activity (7-alkoxycumarin-O-dialkylase),"[3]; mouse, in vivo, ip, 100 mg/kg",5.26 ± 0.28 nmol/min/mg of microsome protein
same,demethylation activity (7-alkoxycumarin-O-dialkylase),"[3]; mouse, in vivo, ip, 100 mg/kg",1.94 ± 0.08 nmol/min/mg of microsome protein
same,depropylation activity (7-alkoxycumarin-O-dialkylase),"[3]; mouse, in vivo, ip, 100 mg/kg",2.97 ± 0.20 nmol/min/mg of microsome protein
same,"deethylation activity, ratio to control (in parentheses)",[3]; [4],5.06
same,"demethylation activity, ratio to control (in parentheses)",[3]; [4],2.04
same,"depropylation activity, ratio to control (in parentheses)",[3]; [4],6.19
